Measured values reported in patent US20230212164A1, “ANNULATED 2-AMINO-3-CYANO THIOPHENES AND DERIVATIVES FOR THE TREATMENT OF CANCER” (BOEHRINGER INGELHEIM INTERNATIONAL GMBH, priority 2020, published 2023).

Tests used:
[1] = biological target: T1, protein-protein interaction between SOS1 and KRAS G12C (Homo sapiens, UniProt P01116, C118S/C51S/C80L/G12C); assay: KRAS::SOS1 AlphaScreen binding assay; conditions: Table 36
T1 construct: His6 (N)

[2] = biological target: KRASG12-dependent Ba/F3 cells (Homo sapiens, UniProt P01116, G12C, cells depend on it); assay: Ba/F3 cell model proliferation assay (AlamarBlue, 72 h); assay type: cell-based; conditions: Ba/F3 cells transduced with KRASG12C, read-out: IC50 Ba/F3 KRASG12C
SW837 cells = assay: SW 837 CTG proliferation assay (CRC); assay type: cell-based; conditions: Homo sapiens
Procedure: SW837 cells (ATCC #CCL-235) were grown in cell culture flasks (175 cm^2) using L-15 10% FCS, 1% L-Glu, 1xNEAA and 1× Na-Pyrovat. Cultures were incubated at 37° C. and 0% CO2 in a humidified atmosphere, with medium change or subcultivation 2-3 times a week. Materials used for the assay were CulturPlate-384, White Opaque 384-well Microplate, Sterile and Tissue Culture Treated (Perkin Elmer #6007680), Leibovitz L15 Medium and FBS #SH30071.03 (HyClone).
(§1) The proliferation assays started (day1) with seeding cells in flat bottom 384 well microtiter plates in 90 μL L-15 10% FCS, 1% L-Glu, 1xNEAA and 1×Na-Pyrovat at a density of 500 cells/well. Any other luminescence compatible plate format is possible. On day 2, 10 μL dilutions of the test compounds covering a concentration range between app. 0,1 and 10.000 nM were added to the cells. Cells were incubated for 5 days in a humidified, CO2 controlled (no CO2) incubator at 37° C. On day 7 100 μL of Cell Titer Glow reagent (Cell titer Glo Luminescent Cat. No. G7571, Promega) were added to each well and incubated for additional 10 min at room temperature (with agitation). Luminescence was measured on a Wallac Victor using standard luminescence read out. IC50 values were calculated using standard Levenburg Marquard algorithms (GraphPad Prism).

MiaPaCa-2 cells = assay: MiaPaCa-2 CTG proliferation assay (pancreatic cancer); assay type: cell-based; conditions: Homo sapiens, MIA PaCa-2, 120 h, 5 days, read-out: IC50 MiaPACA2
Procedure: as §1, with “μL DMEM medium supplemented with” for “μL L-15”, “10% FBS” for “10% FCS, 1% L-Glu, 1xNEAA and 1×Na-Pyrovat”, “humidified, incubator with 5%” for “humidified,”, “CO2” for “CO2 controlled (no CO2) incubator”, “100 μl” for “100 μL”

NCI-H358 cells = assay: NCI-H358 CTG proliferation assay (120 h) (NSCLC); assay type: cell-based; conditions: Homo sapiens
Procedure: NCI-H358 cells (ATCC No. CRL-5807) were dispensed into white bottom opaque 96 well plates (Perkin Elmer cat no. 5680) at a density of 2000 cells per well in 100 μL RPMI-1640 ATCC-Formulation (Gibco #A10491)+10% FCS. Cells were incubated overnight at 37° C. in a humidified tissue culture incubator at 5% CO2. Compounds (10 mM stock in DMSO) were added at logarithmic dose series using the HP Digital Dispenser D300 (Tecan), normalizing for added DMSO. For the T0 time point measurement, untreated cells were analyzed at the time of compound addition. Plates were incubated for 120 hours, and cell viability was measured using CellTiter-Glo luminescent cell viability reagent (Promega product code G7570). Viability (stated as percent of control) is defined as relative luminescence units RLU of each well divided by the RLU of cells in DMSO controls. IC50 values were determined from viability measurements by non-linear regression using a four parameter model.

[3] = system: pERK (Thr202/Tyr204) in NCI-H358_Cas9_SOS2 (SOS2 knocked); assay: ERK phosphorylation assay 2 (AlphaLISA SureFire Ultra p-ERK1/2); conditions: read-out: IC50 H358 pERK, ERK phosphorylation assay 2 (values marked with *)
Procedure: ERK Phosphorylation Assay
Low IC50 values in this assay setting are indicative of high potency of the compounds according to the invention.
GFP positive cells were collected and further expanded. These GFP-positive cell pools were single-cell diluted and SOS2 knock-out clones were identified via Western-blot and genomic DNA sequencing analysis.
Materials Used for the Assay:
AlphaLISA SureFire Ultra p-ERK1/2 (Thr202/Tyr204) Assay Kit (ALSU-PERK-A500)
Cells are seeded at 40,000 cells per well in /60 μL of RPMI with 10% FBS, non-essential amino acids, pyruvate and glutamax in Greiner TC 384 plates. The cells are incubated for 1 h at room temperature and then incubated overnight in an incubator at 37° C. and 5% CO2 in a humidified atmosphere. 60 nL compound solution (10 mM DMSO stock solution) is then added using a Labcyte Echo 550 device. After a 1 h incubation in the aforementioned incubator the medium is removed after centrifugation and the cells lysed by addition of 20 μL of 1.6-fold lysis buffer from the AlphaLISA SureFire Ultra pERK1/2 (Thr202/Tyr204) Assay Kit with added protease inhibitors, 100 nM trametinib+100 nM staurosporine. After 20 minutes of incubation at room temperature with shaking, 6 μL of each lysate sample is transferred to a 384-well Proxiplate and analyzed for pERK (Thr202/Tyr204) with the AlphaLISA SureFire Ultra pERK1/2 (Thr202/Tyr204) Assay Kit. 3 μL Acceptor Mix and 3 μL Donor Mix are added under subdued light and incubated for 2 h at room temperature in the dark, before the signal is measured on a PerkinElmer Envision HTS Multilabel Reader. The raw data were imported into and analyzed with the Boehringer Ingelheim proprietary software MegaLab (curve fitting based on the program PRISM, GraphPad Inc.).

Chain of KRASG12-dependent Ba/F3 cells (P01116 whole entry G12C): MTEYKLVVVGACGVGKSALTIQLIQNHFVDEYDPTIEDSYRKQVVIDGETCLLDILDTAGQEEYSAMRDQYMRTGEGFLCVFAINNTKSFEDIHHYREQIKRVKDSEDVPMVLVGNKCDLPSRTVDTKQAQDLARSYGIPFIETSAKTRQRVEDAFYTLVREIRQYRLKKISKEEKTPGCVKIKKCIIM
T1 sequence (P01116 1-169 isoform P01116-2 G12C/C51S/C80L/C118S): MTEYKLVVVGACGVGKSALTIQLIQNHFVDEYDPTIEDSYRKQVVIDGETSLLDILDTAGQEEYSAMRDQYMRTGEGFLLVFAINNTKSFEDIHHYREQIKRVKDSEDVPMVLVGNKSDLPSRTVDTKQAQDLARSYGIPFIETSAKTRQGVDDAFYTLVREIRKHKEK

Structure (SMILES)	IC50 [1] [nM]	GI50 [2] [nM]	IC50 (SW837 cells) [nM]	IC50 (MiaPaCa-2 cells) [nM]	IC50 (NCI-H358 cells) [nM]	IC50 [3] [nM]
C=CC(=O)N1CCN(c2cc(-c3noc([C@@]4(C)CCCc5sc(N)c(C#N)c54)n3)nc(O[C@@H](C)[C@@H]3CCCN3C)n2)CC1 [Ia-46]	1.7	4.4	< 1	3	0.95	2.1
C=CC(=O)N1CCN(c2cc(-c3noc([C@@]4(C)CCCc5sc(N)c(C#N)c54)n3)nc(O[C@@H](C)[C@@H]3CCCN3C)n2)[C@@H](C)C1 [Ia-54]	1.6	4.3	2.25	2.22	1.34	2.2
C=CC(=O)N1CCN(c2cc(-c3noc([C@@]4(C)CCCc5sc(N)c(C#N)c54)n3)nc(O[C@@H](C)[C@@H]3CCCN3C)n2)C[C@@H]1C [Ia-61]	1.6	2.3	0.63	4.23	0.67	1.3

Now from value to compound:

IC50 [1] [nM]	GI50 [2] [nM]	IC50 (SW837 cells) [nM]	IC50 (MiaPaCa-2 cells) [nM]	IC50 (NCI-H358 cells) [nM]	IC50 [3] [nM]	Structure (SMILES)
1.6	1.2	0.42	6.77	1.01	1.2	C=CC(=O)N1[C@@H](C)CN(c2cc(-c3noc([C@@]4(C)CCCc5sc(N)c(C#N)c54)n3)nc(O[C@@H](C)[C@@H]3CCCN3C)n2)C[C@@H]1C [Ia-62]
2.2	12	6.34	12.1	7.42	3.5	C=CC(=O)N1[C@H](C)CN(c2cc(-c3noc([C@@]4(C)CCCc5sc(N)c(C#N)c54)n3)nc(O[C@@H](C)[C@@H]3CCCN3C)n2)C[C@@H]1C [Ia-64]
2	6.9	4.11	13.3	4.2	2.6	C=CC(=O)N1CCN(c2cc(O[C@@H](C)[C@@H]3CCCN3C)nc(-c3noc([C@@]4(C)CCCc5sc(N)c(C#N)c54)n3)n2)CC12CC2 [Ia-77]
2	7	2.08	13.8	4.67	3.9	C=CC(=O)N1[C@H](C)CC(Oc2cc(O[C@@H](C)[C@@H]3CCCN3C)nc(-c3noc([C@@]4(C)CCCc5sc(N)c(C#N)c54)n3)c2)C[C@H]1C (stereo partly drawn) [Ia-86]
12	77.7	71	673	41.4	28.9	C=CC(=O)N1C[C@H](C)N(c2cc(-c3noc([C@@]4(C)CCCc5sc(N)c(C#N)c54)n3)nc(O[C@@H](C)[C@@H]3CCCN3C)n2)C[C@H]1C [Ia-133]
